Experimental data as given in US11406628B2, “Sustained-release triptan compositions and method of use the same through subdermal route or the like” (Taiwan Liposome Co., Ltd, priority 2017, dated 2022).
Like-named read-outs stand apart in the source and are kept apart here.

Key:
[1] = female rats, cited from earlier work; for Cmax/dose: normalization using sumatriptan succinate dosage
patients = details: within 24 hours or 48 hours of initial symptom resolution; cited from earlier work
[2] = human, cited from earlier work
[3] = Pharmacokinetic study of liposomal sumatriptan in rats after single subcutaneous administration
Protocol: Jugular vein cannulated (JVC) female Sprague-Dawley rats (7-9 weeks) were used for a pharmacokinetic (PK) study. The rats were housed in a holding room which operates on a 12-hour light/12-hour dark circadian cycle with free access (ad libitum) to water and food.
Blood samples were collected at 2, 4, 8, 24, 48 and 72 hours post-injection. Plasma samples were obtained by centrifugation and then dimethyl sulfoxide was added to the plasma samples at a final concentration of 5% (v/v) for storing the samples at −80° C. until analysis. One-hundred microliters of each sample were subject to separation of sumatriptan by a Strata C18-E tube to obtain the sumatriptan fraction and sumatriptan concentration was determined employing LC-MS/MS methods.
The unformulated sumatriptan injection was prepared by dissolving the sumatriptan tartrate in ultrapure water at 2 mg/mL. The in vivo PK profiles of the rats (n=3) administrated with unformulated sumatriptan following subcutaneous injection at the dosage of 3 mg/kg of sumatriptan tartrate were compared to the PK profiles of the rats administered 10 mg/kg of sumatriptan from the liposomal sumatriptan formulation. Blood samples were collected at 15 mins, 0.5, 1, 2, 4, 6 and 8 hours post-injection. Plasma samples were obtained by centrifugation and were kept frozen at −80° C. until analysis.
FIG. 1 depicts the mean sumatriptan concentration versus time curve over 72 hours post-injection. Table 2 provides a summary of the PK parameters which were obtained using a noncompartmental model within the PKSolver program.

[4] = unformulated 3 mg/kg, liposomal 10 mg/kg

Molecule	t1/2 ([1]; intranasal administration)	Cmax/dose ([1]; intranasal)	t1/2 ([1]; intravenous administration)	Cmax/dose ([1]; intravenous)	migraine recurrence rate (patients)	half-life (t1/2) ([2]; 6 mg subcutaneous injection)	half-life (t1/2) ([2]; 20 mg intranasal administration)	half-life (t1/2) ([2]; 100 mg oral tablet)	half-life (t1/2) ([2]; irrespective of route of administration)	time to reach maximum plasma concentration ([2]; subcutaneous injection)	AUC0-t/dose ([3]; dose-normalized)	Cmax/dose ([3]; dose-normalized)	AUC0-inf [3, 4]	AUC0-t [3, 4]	Cmax [3, 4]	t1/2 [3, 4]
CNS(=O)(=O)Cc1ccc2[nH]cc(CCN(C)C)c2c1 [sumatriptan]	3.6 h	25 ng/mL	1.1 h	508.6 ng/mL	about 40%	2 h	1.8 h	2 h	approximately 2 hours	approximately 10 minutes						
sumatriptan tartrate [Unformulated Sumatriptan]											226.9	138	687.4 ng·h/mL	680.6 ng·h/mL	414 ng/mL	1.1 h
